Article PMC6212553, “Baicalein Enhances the Oral Bioavailability and Hepatoprotective Effects of Silybin Through the Inhibition of Efflux Transporters BCRP and MRP2” (Frontiers in Pharmacology, 2018)

Legend:
[1] = test system: CCl4-induced liver injury model; test: CCl4-induced acute liver injury in rats; format: in vivo, SD rats; design: Nerosis (histologic score, liver H&E) / Haemorrhage (histologic score, liver H&E) / Inflammation (histologic score, liver H&E) / Steatosis (histologic score, liver H&E): scale not given here
Procedure: Male SD rats were randomly divided into seven groups: […] (2) Group II, given blank vehicle p.o. for 7 days; (3) Group III, treatment with silybin (100 mg/kg bodyweight, p.o.) for 7 days; […] After 24 h of CCl4 treatment, all rats were sacrificed under ether anesthesia. Blood samples were collected from the abdominal aorta for biochemical estimations. The liver was immediately removed and weighed with a large portion of the liver frozen in liquid nitrogen. The pathological liver changes were examined by hematoxylin and eosin (H&E) staining, which was performed by a pathologist who was blinded to this study. The serum levels of ALT, AST, AKP, and SOD as well as the cytokines TNF- α, IL-6, and IL-1β were detected by the assay kit, according to the manufacturer’s instructions.

[2] = Bidirectional transport of silybin across Caco-2 cell monolayers; format: in vitro ADME, Human; conditions: human; Caco-2, silybin 2.5, 5 and 10 μM, with baicalein 5 μM
Procedure: Human colon epithelial cell line (Caco-2) was purchased from American Type Culture Collection (Manassas, VA, United States) and frozen at -80°C. Wild type MDCK II, MDR1-MDCK II, BCRP-MDCK II, and MRP2-MDCK II cells were kindly supplied by the Netherlands Cancer Institute (Amsterdam, Netherlands). Transport study was carried out with Caco-2 cells, and MDCK II cells were transfected using a previously established method with slight modifications ([Yuan et al., 2017]). The Caco-2 cells were cultured at 37°C/5% CO2 in Dulbecco's modified Eagle's medium (DMEM) supplemented with 10% fetal bovine serum, 1% nonessential amino acids, and 1% penicillin-streptomycin. The Caco-2 cells were seeded onto polyester filter membranes in a 12-well Transwell® plate (Corning Costar Co., NY, United States) with 0.6 × 10^5 cells/cm^2. The monolayer cells were used for transport assays between 21 and 23 days. The MDCKII cells were seeded on transwell plates with a density of 2.0 × 10^5 cells/cm^2 and grown for 4-5 days to form a confluent monolayer. Bidirectional transport assays for Caco-2 and MDCK II cells were performed by adding silybin (10 μM) in assay buffer into either the apical (AP; A-to-B) or basolateral (BL; […] For inhibition studies, Caco-2 or MDCK II cell monolayers in both apical and basolateral chambers were preincubated with the inhibitor for 30 min. The fluorescence intensity of the sample collected from the AP or BL side was immediately detected in a 96-well black plate by the Microplate UV/VIS spectrophotometer (TECAN Infinite […], Männedorf, Switzerland). For liquid chromatography tandem-mass spectrometry (LC-MS/MS) analysis, the sample (100 μl) was mixed with methanol (50 μl) containing internal standard (25 ng/ml) and was stored at -80°C. The formula for calculating apparent permeability coefficient (Papp) values is as follows: (1) […] where dQ/dt (mM/s) represents the rate of permeation of the drug across the cells, C0 (mM) refers to the concentration in the donor compartment at time zero calculated from dosing solution, and A (cm^2) refers to the area of the cell monolayer. Papp (B-A) is the Papp value measured in the B to A direction, and Papp (A-B) is the Papp value measured in the A to B direction. The efflux ratio is given as ER = Papp (B to A)/Papp (A to B).

[3] = design: method as in Pradhan and Girish, 2006; conditions: doses <10 g/d; ref Pradhan and Girish, 2006; cited from earlier work
[4] = design: method as in Wen et al., 2008; conditions: after oral administration; ref Wen et al., 2008; cited from earlier work
[5] = 100 mg/kg p.o. 7 days, single agent, CCl4 on day 7
[6] = silybin 100 mg/kg for 7 consecutive days, P < 0.01

COc1cc(C2Oc3cc([C@H]4Oc5cc(O)cc(O)c5C(=O)[C@@H]4O)ccc3OC2CO)ccc1O (some centres unmarked) [silybin, Silybin]
Haemorrhage (histologic score, liver H&E) [1, 5]: 2.2±0.8 | Inflammation (histologic score, liver H&E) [1, 5]: 2.0±0.6 | Nerosis (histologic score, liver H&E) [1, 5]: 2.7±0.5 | Steatosis (histologic score, liver H&E) [1, 5]: 2.2±0.8 | CCl4-induced increase of liver weight and ratio of liver to body weight ([1]; p.o. 7 days before CCl4, p < 0.01): abrogated | CCl4-induced increase in serum IL-1β, IL-6, and TNF-α levels [1, 6]: significantly prevented | CCl4-induced increase in the serum activities of ALT, AST, and AKP [1, 6]: significantly prevented | efflux ratio at 180 min [2]: ~2 | side effects [3]: no significant side effects | glucuronide conjugated silybin [4]: 55% | sulfate conjugated silybin [4]: 28%
